Converted amounts (≈) assume the structure as drawn. The source made the active and inactive calls. No cut-off for these calls is given here.
Tests used:
Staphylococcus aureus [1] = assay: Antibacterial activity against Staphylococcus aureus CGMCC1.8721 assessed as reduction in bacterial growth; assay type: functional
Staphylococcus aureus [2] = assay: Antibacterial activity against methicillin-resistant Staphylococcus aureus ATCC 33591 assessed as reduction in bacterial growth; assay type: functional
Staphylococcus aureus [3] = assay: Antibacterial activity against methicillin-resistant Staphylococcus aureus ATCC 43300 assessed as reduction in bacterial growth; assay type: functional
Staphylococcus aureus [4] = assay: Antibacterial activity against methicillin-resistant Staphylococcus aureus CGMCC 1.12409 assessed as reduction in bacterial growth; assay type: functional
Staphylococcus aureus [5] = assay: Antibacterial activity against Staphylococcus aureus CGMCC1.8721 assessed as reduction in bacterial growth in presence of phosphatidylglycerol; assay type: functional
Staphylococcus aureus [6] = assay: Bactericidal activity against methicillin-resistant Staphylococcus aureus ATCC 33591 assessed as reduction in bacterial growth; assay type: functional
Staphylococcus aureus [7] = assay: Bactericidal activity against methicillin-resistant Staphylococcus aureus CGMCC 1.12409 assessed as reduction in bacterial growth; assay type: functional
Staphylococcus aureus [8] = assay: Bactericidal activity against methicillin-resistant Staphylococcus aureus ATCC 43300 assessed as reduction in bacterial growth; assay type: functional
Staphylococcus aureus [9] = assay: Bactericidal activity against Staphylococcus aureus CGMCC1.8721 assessed as reduction in bacterial growth; assay type: functional
Staphylococcus aureus [10] = assay: Antibacterial activity against Methicillin-resistant Staphylococcus aureus CGMCC1.8721 infected in mouse skin infection model assessed as reduction in bacterial clones at 5 mg/kg, sc; assay type: functional, organism-based
Staphylococcus aureus [11] = assay: Antibacterial activity against Methicillin-resistant Staphylococcus aureus CGMCC1.8721 infected in mouse skin infection model assessed as reduction in bacterial load at 5 mg/kg, sc; assay type: functional; parameters: scale not given: the % may be the effect or the level left

SMILES | MIC (Staphylococcus aureus [1]) [µg/mL] | MIC (Staphylococcus aureus [2]) [µg/mL] | MIC (Staphylococcus aureus [3]) [µg/mL] | MIC (Staphylococcus aureus [4]) [µg/mL] | also measured
COc1ccc2[nH]cc(C[C@@H](C)[C@H]3CC[C@H]4[C@@H]5[C@H](O)C[C@@H]6C[C@H](O)CC[C@]6(C)[C@H]5CC[C@]34C)c2c1 | 16 (≈ 33.4 µM) | 32 (≈ 66.7 µM) | 32 (≈ 66.7 µM) | 32 (≈ 66.7 µM) | 
COc1ccc2[nH]cc([C@H]3CC[C@H]4[C@@H]5CCc6cc(O)ccc6[C@H]5CC[C@]34C)c2c1 | 16 (≈ 39.8 µM) |  | 32 (≈ 79.7 µM) |  | 
CC1(C)S[C@@H]2[C@H](NC(=O)[C@H](N)c3ccccc3)C(=O)N2[C@H]1C(=O)O |  |  |  |  | Activity (Staphylococcus aureus [5]): inactive
C[C@H](Cc1c[nH]c2ccc(CN3CCC(N4CCCC4)CC3)cc12)[C@H]1CC[C@H]2[C@@H]3CC[C@@H]4C[C@H](O)CC[C@]4(C)[C@H]3CC[C@]12C | 16 (≈ 26.7 µM) |  | 16 (≈ 26.7 µM) |  | 
C[C@H](Cc1c[nH]c2ccc(CNc3ccc(C(F)(F)F)cc3)cc12)[C@H]1CC[C@H]2[C@@H]3CC[C@@H]4C[C@H](O)CC[C@]4(C)[C@H]3CC[C@]12C | 16 (≈ 26.4 µM) |  | 32 (≈ 52.7 µM) | > 32 | 
C[C@H](Cc1c[nH]c2ccc(CNCCN3CCN(C)CC3)cc12)[C@H]1CC[C@H]2[C@@H]3CC[C@@H]4C[C@H](O)CC[C@]4(C)[C@H]3CC[C@]12C | 2 (≈ 3.4 µM) | 4 (≈ 6.79 µM) | 2 (≈ 3.4 µM) | 4 (≈ 6.79 µM) | 
COc1ccc2[nH]cc(C[C@@H](C)[C@H]3CC[C@H]4[C@@H]5[C@H](O)C[C@@H]6C[C@H](O)CC[C@]6(C)[C@H]5C[C@H](O)[C@]34C)c2c1 | 16 (≈ 32.3 µM) | 32 (≈ 64.6 µM) | 32 (≈ 64.6 µM) | 32 (≈ 64.6 µM) | 
COc1ccc(NCc2ccc3[nH]cc(C[C@@H](C)[C@H]4CC[C@H]5[C@@H]6CC[C@@H]7C[C@H](O)CC[C@]7(C)[C@H]6CC[C@]45C)c3c2)cc1 | 16 (≈ 28.1 µM) |  | 16 (≈ 28.1 µM) |  | 
C[C@H](Cc1c[nH]c2ccc(CN3CCNCC3)cc12)[C@H]1CC[C@H]2[C@@H]3CC[C@@H]4C[C@H](O)CC[C@]4(C)[C@H]3CC[C@]12C | 8 (≈ 15 µM) | 16 (≈ 30.1 µM) | 16 (≈ 30.1 µM) | 16 (≈ 30.1 µM) | 
CCCNCc1ccc2[nH]cc(C[C@@H](C)[C@H]3CC[C@H]4[C@@H]5CC[C@@H]6C[C@H](O)CC[C@]6(C)[C@H]5CC[C@]34C)c2c1 | 32 (≈ 63.4 µM) |  | 32 (≈ 63.4 µM) |  | 
CCCCCCCCCC(=O)N[C@@H](Cc1c[nH]c2ccccc12)C(=O)N[C@@H](CC(N)=O)C(=O)N[C@@H](CC(=O)O)C(=O)N[C@@H]1C(=O)NCC(=O)N[C@@H](CCCN)C(=O)N[C@@H](CC(=O)O)C(=O)N[C@H](C)C(=O)N[C@@H](CC(=O)O)C(=O)NCC(=O)N[C@H](CO)C(=O)N[C@@H]([C@@H](C)CC(=O)O)C(=O)N[C@@H](CC(=O)c2ccccc2N)C(=O)O[C@@H]1C |  |  |  |  | Activity (Staphylococcus aureus [5]): Active
CCNCc1ccc2[nH]cc([C@H]3CC[C@H]4[C@@H]5CCc6cc(O)ccc6[C@H]5CC[C@]34C)c2c1 | 1 (≈ 2.33 µM) | 4 (≈ 9.33 µM) | 1 (≈ 2.33 µM) | 4 (≈ 9.33 µM) | MBC (Staphylococcus aureus [6]): 8 µg/mL (≈ 18.7 µM); MBC (Staphylococcus aureus [7]): 8 µg/mL (≈ 18.7 µM); MBC (Staphylococcus aureus [8]): 2 µg/mL (≈ 4.67 µM); MBC (Staphylococcus aureus [9]): 2 µg/mL (≈ 4.67 µM)
CC1CN(Cc2ccc3[nH]cc(C[C@@H](C)[C@H]4CC[C@H]5[C@@H]6CC[C@@H]7C[C@H](O)CC[C@]7(C)[C@H]6CC[C@]45C)c3c2)CC(C)N1 (some centres undefined) | 32 (≈ 57.2 µM) |  |  |  | 
CCNCc1ccc2[nH]cc([C@H]3CC[C@H]4[C@@H]5CC[C@H]6C[C@@H](O)CC[C@]6(C)[C@H]5CC[C@]34C)c2c1 | 4 (≈ 8.91 µM) | 8 (≈ 17.8 µM) | 4 (≈ 8.91 µM) | 8 (≈ 17.8 µM) | MBC (Staphylococcus aureus [6]): 16 µg/mL (≈ 35.7 µM); MBC (Staphylococcus aureus [7]): 16 µg/mL (≈ 35.7 µM); MBC (Staphylococcus aureus [8]): 8 µg/mL (≈ 17.8 µM); MBC (Staphylococcus aureus [9]): 8 µg/mL (≈ 17.8 µM)
CN[C@H](CC(C)C)C(=O)N[C@H]1C(=O)N[C@@H](CC(N)=O)C(=O)N[C@H]2C(=O)N[C@H]3C(=O)N[C@H](C(=O)N[C@H](C(=O)O)c4cc(O)cc(O)c4-c4cc3ccc4O)[C@H](O)c3ccc(c(Cl)c3)Oc3cc2cc(c3O[C@@H]2O[C@H](CO)[C@@H](O)[C@H](O)[C@H]2O[C@H]2C[C@](C)(N)[C@H](O)[C@H](C)O2)Oc2ccc(cc2Cl)[C@H]1O [VANCOMYCIN] |  |  |  |  | Activity (Staphylococcus aureus [10]): Active; Activity (Staphylococcus aureus [5]): inactive; Activity (Staphylococcus aureus [11]): 87%
C[C@H](Cc1c[nH]c2ccccc12)[C@H]1CC[C@H]2[C@@H]3CC[C@@H]4C[C@H](O)CC[C@]4(C)[C@H]3CC[C@]12C | > 32 |  |  |  | 
C[C@H](Cc1c[nH]c2ccc(CN3CCOCC3)cc12)[C@H]1CC[C@H]2[C@@H]3CC[C@@H]4C[C@H](O)CC[C@]4(C)[C@H]3CC[C@]12C | 16 (≈ 30 µM) |  | 32 (≈ 60.1 µM) |  | 
C[C@H](Cc1c[nH]c2ccc(CN3CC(O)C3)cc12)[C@H]1CC[C@H]2[C@@H]3CC[C@@H]4C[C@H](O)CC[C@]4(C)[C@H]3CC[C@]12C | 8 (≈ 15.4 µM) | 16 (≈ 30.8 µM) | 8 (≈ 15.4 µM) | 16 (≈ 30.8 µM) | 
CNCc1ccc2[nH]cc(C[C@@H](C)[C@H]3CC[C@H]4[C@@H]5CC[C@@H]6C[C@H](O)CC[C@]6(C)[C@H]5CC[C@]34C)c2c1 | 2 (≈ 4.2 µM) | 2 (≈ 4.2 µM) | 2 (≈ 4.2 µM) | 2 (≈ 4.2 µM) | MBC (Staphylococcus aureus [6]): 4 µg/mL (≈ 8.39 µM); MBC (Staphylococcus aureus [7]): 4 µg/mL (≈ 8.39 µM); MBC (Staphylococcus aureus [8]): 4 µg/mL (≈ 8.39 µM); MBC (Staphylococcus aureus [9]): 2 µg/mL (≈ 4.2 µM)
COc1ccc2[nH]cc([C@H]3CC[C@H]4[C@@H]5CC[C@H]6C[C@@H](O)CC[C@]6(C)[C@H]5CC[C@]34C)c2c1 | 16 (≈ 37.9 µM) |  | 16 (≈ 37.9 µM) |  | 
COc1ccc2[nH]cc(C[C@@H](C)[C@H]3CC[C@H]4[C@@H]5CC[C@@H]6C[C@H](O)CC[C@]6(C)[C@H]5CC[C@]34C)c2c1 | 16 (≈ 34.5 µM) | 32 (≈ 69 µM) | 32 (≈ 69 µM) | 32 (≈ 69 µM) | 
CCn1cc(C(=O)O)c(=O)c2cc(F)c(N3CCNCC3)cc21 |  |  |  |  | Activity (Staphylococcus aureus [5]): inactive
C[C@H](Cc1c[nH]c2ccc(CO)cc12)[C@H]1CC[C@H]2[C@@H]3CC[C@@H]4C[C@H](O)CC[C@]4(C)[C@H]3CC[C@]12C | 16 (≈ 34.5 µM) |  | 32 (≈ 69 µM) | 32 (≈ 69 µM) | 
C[C@H](Cc1c[nH]c2ccc(CNCCCl)cc12)[C@H]1CC[C@H]2[C@@H]3CC[C@@H]4C[C@H](O)CC[C@]4(C)[C@H]3CC[C@]12C | 32 (≈ 60.9 µM) |  |  |  | 
C[C@H](Cc1c[nH]c2ccc(CN3CCSCC3)cc12)[C@H]1CC[C@H]2[C@@H]3CC[C@@H]4C[C@H](O)CC[C@]4(C)[C@H]3CC[C@]12C | 8 (≈ 14.6 µM) | 16 (≈ 29.2 µM) | 16 (≈ 29.2 µM) | 16 (≈ 29.2 µM) | 
C[C@H](Cc1c[nH]c2ccc(CN3CCN(C)CC3)cc12)[C@H]1CC[C@H]2[C@@H]3CC[C@@H]4C[C@H](O)CC[C@]4(C)[C@H]3CC[C@]12C | 16 (≈ 29.3 µM) |  |  |  | 
C[C@H](Cc1c[nH]c2ccc(CN3CCC(O)C3)cc12)[C@H]1CC[C@H]2[C@@H]3CC[C@@H]4C[C@H](O)CC[C@]4(C)[C@H]3CC[C@]12C (some centres undefined) | 8 (≈ 15 µM) |  | 16 (≈ 30 µM) |  | 
C[C@H](Cc1c[nH]c2ccc(CNCCO)cc12)[C@H]1CC[C@H]2[C@@H]3CC[C@@H]4C[C@H](O)CC[C@]4(C)[C@H]3CC[C@]12C | 16 (≈ 31.6 µM) |  |  |  | 
O=C(N[C@H](CO)[C@H](O)c1ccc([N+](=O)[O-])cc1)C(Cl)Cl |  |  |  |  | Activity (Staphylococcus aureus [5]): inactive

Reference: ChEMBL document CHEMBL6078711, “Design, synthesis, and biological evaluation of steroidal indole derivatives as membrane-targeting antibacterial candidates” (Eur J Med Chem, 2025)
